The results in this text go back to US20240287080A1 (IDEAYA Biosciences Inc., priority 2021, published 2024).

The target in the first assay is T1, Pol theta (1-899) (Homo sapiens, UniProt O75417).
T1 construct: Pol theta (1-899) (5 nM) in assay buffer
T1 sequence (O75417 1-899): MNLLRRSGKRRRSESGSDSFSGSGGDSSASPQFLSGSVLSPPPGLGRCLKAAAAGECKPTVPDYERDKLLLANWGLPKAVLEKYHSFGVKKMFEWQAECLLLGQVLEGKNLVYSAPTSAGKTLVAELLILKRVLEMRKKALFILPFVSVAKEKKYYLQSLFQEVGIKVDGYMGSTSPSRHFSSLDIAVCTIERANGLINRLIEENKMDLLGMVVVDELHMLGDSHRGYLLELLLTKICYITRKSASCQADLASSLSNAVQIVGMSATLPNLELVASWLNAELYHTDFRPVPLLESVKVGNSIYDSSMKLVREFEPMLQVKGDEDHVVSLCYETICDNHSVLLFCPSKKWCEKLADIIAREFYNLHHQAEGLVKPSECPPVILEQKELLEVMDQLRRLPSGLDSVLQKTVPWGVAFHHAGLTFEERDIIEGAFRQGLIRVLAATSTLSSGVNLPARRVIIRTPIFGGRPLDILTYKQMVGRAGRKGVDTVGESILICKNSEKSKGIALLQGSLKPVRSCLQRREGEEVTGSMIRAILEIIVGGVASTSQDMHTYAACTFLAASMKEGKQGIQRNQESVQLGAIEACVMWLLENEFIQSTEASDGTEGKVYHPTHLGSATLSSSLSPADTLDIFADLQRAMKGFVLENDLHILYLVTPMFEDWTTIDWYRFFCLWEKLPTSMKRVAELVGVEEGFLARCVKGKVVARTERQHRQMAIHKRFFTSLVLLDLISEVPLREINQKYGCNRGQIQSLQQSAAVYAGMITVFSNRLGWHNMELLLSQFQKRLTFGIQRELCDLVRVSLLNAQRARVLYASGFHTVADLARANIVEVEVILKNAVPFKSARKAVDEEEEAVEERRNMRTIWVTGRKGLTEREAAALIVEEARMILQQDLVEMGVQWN
The assay can be described thus: Pol theta ATPase activity, NADH oxidation-coupled enzymatic assay (ATPase NADH coupling: Standard Screening: hPolQ). The format is biochemical. The note with it: Pol theta (1-899) 5 nM, NADH oxidation-coupled ATPase assay; compounds of Table 3. In a few lines:
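Rates of ATP hydrolysis taken from 60-min A340 traces of NADH oxidation via PK/LDH coupling, then fit four-parameter for IC50, Hill slope and max inhibition. Enzyme (5 nM, 1-899) and compounds preincubated 15 min before ATP 100 μM and 50-thymine ssDNA 300 nM (stock, equal volume added).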
On to `COc1nnc(NC(=O)c2cnc(C)cc2-c2cnn3c2CCCC3)s1` [Example 395, N-(5-methoxy-1,3,4-thiadiazol-2-yl)-6-methyl-4-{4H,5H,6H,7H-pyrazolo[1,5-a]pyridin-3-yl}pyridine-3-carboxamide], for which the IC50 (commonly the point on the concentration scale where inhibition reaches its midpoint) lay within 1000 to 10000 nM. On the same count and under the same terms, next, `COc1nnc(NC(=O)c2cnc(C)cc2-c2cc(C)c([S@+](C)[O-])cc2OC)s1` (single isomer, unassigned) [Example 307]: 200 to 500 nM; `COc1nnc(NC(=O)c2cnc(C)cc2-c2ccc(C#N)nc2)s1` [Example 437, 6-cyano-N-(5-methoxy-1,3,4-thiadiazol-2-yl)-6′-methyl-[3,4′-bipyridine]-3′-carboxamide]: 1000 to 10000 nM.

Take `COc1cnc(Cl)cc1-c1cc(C)ncc1C(=O)Nc1nnc(O[C@H]2CO[C@H]3[C@@H]2OC[C@H]3O)s1` [Example 237, 2′-chloro-N-(5-(((3S,3aR,6R,6aR)-6-hydroxyhexahydrofuro[3,2-b]furan-3-yl)oxy)-1,3,4-thiadiazol-2-yl)-5′-methoxy-6-methyl-[4,4′-bipyridine]-3-carboxamide]: the 50% inhibitory concentration (IC50) is no more than 200 nM.

`COc1nnc(NC(=O)c2cnc(C)cc2-c2ccc(F)cc2)s1` [Example 368, 4-(4-fluorophenyl)-N-(5-methoxy-1,3,4-thiadiazol-2-yl)-6-methylpyridine-3-carboxamide]: the concentration for half-maximal inhibition (IC50) is 1000 to 10000 nM. `CNC(=O)c1ccc(-c2cc(C)ncc2C(=O)Nc2nnc(OC)s2)cc1` [Example 402, N-(5-methoxy-1,3,4-thiadiazol-2-yl)-6-methyl-4-[4-(methylcarbamoyl)phenyl]pyridine-3-carboxamide] showed an IC50 of 1000 to 10000 nM. `COc1nnc(NC(=O)c2cnc(C)cc2-c2cccnc2)s1` [Example 331, N-(5-methoxy-1,3,4-thiadiazol-2-yl)-6′-methyl-[3,4′-bipyridine]-3′-carboxamide] showed a half-maximal inhibitory concentration (IC50) of 1000 to 10000 nM. In the case of `COc1cnc(C)c(F)c1-c1cc(C)ncc1C(=O)Nc1nnc(O[C@H]2CC[C@H](CO)CC2)s1` [Example 314, 3′-fluoro-N-(5-(((1r,4r)-4-(hydroxymethyl)cyclohexyl)oxy)-1,3,4-thiadiazol-2-yl)-5′-methoxy-2′,6-dimethyl-[4,4′-bipyridine]-3-carboxamide], the IC50 is no more than 200 nM. For `COc1cnc(C)cc1-c1cc(C)ncc1C(=O)Nc1nnc(OC(CC(N)=O)C(F)(F)F)s1` (stereo not shown) [Example 324, N-(5-((4-amino-1,1,1-trifluoro-4-oxobutan-2-yl)oxy)-1,3,4-thiadiazol-2-yl)-5′-methoxy-2′,6-dimethyl-[4,4′-bipyridine]-3-carboxamide], the IC50 is no more than 200 nM. Regarding `COc1nnc(NC(=O)c2ccc([N+](=O)[O-])cc2-c2cc(Cl)ncc2OC)s1` [Example 300, 2-(2-chloro-5-methoxypyridin-4-yl)-N-(5-methoxy-1,3,4-thiadiazol-2-yl)-4-nitrobenzamide], the 50% inhibitory concentration (IC50) is no more than 200 nM. Still for that read-out and setting: with `COc1nnc(NC(=O)c2cnc(C)cc2-c2ccc3c(c2)CCN(C)C3)s1` [Example 432, N-(5-methoxy-1,3,4-thiadiazol-2-yl)-6-methyl-4-(2-methyl-1,2,3,4-tetrahydroisoquinolin-6-yl)nicotinamide] the figure was 1000 to 10000 nM; with `COc1nnc(NC(=O)c2cnc(C)cc2-c2ccoc2)s1` [Example 390, 4-(furan-3-yl)-N-(5-methoxy-1,3,4-thiadiazol-2-yl)-6-methylpyridine-3-carboxamide], 1000 to 10000 nM; with `COc1nnc(NC(=O)c2cnc(C)cc2-c2cnc3[nH]ccc3c2)s1` [Example 399, N-(5-methoxy-1,3,4-thiadiazol-2-yl)-6-methyl-4-{1H-pyrrolo[2,3-b]pyridin-5-yl}pyridine-3-carboxamide], 1000 to 10000 nM. Regarding `COc1cnc(C)c(F)c1-c1cc(C)ncc1C(=O)Nc1nnc(O[C@H]2CO[C@H]3OCC[C@H]32)s1` [Example 243, 3′-fluoro-N-(5-(((3R,3aS,6aR)-hexahydrofuro[2,3-b]furan-3-yl)oxy)-1,3,4-thiadiazol-2-yl)-5′-methoxy-2′,6-dimethyl-[4,4′-bipyridine]-3-carboxamide], the IC50 is no more than 200 nM. Regarding `COc1nnc(NC(=O)c2cnc(C)cc2-c2cscc2C#N)s1` [Example 442, 4-(4-cyanothiophen-3-yl)-N-(5-methoxy-1,3,4-thiadiazol-2-yl)-6-methylpyridine-3-carboxamide], the 50% inhibitory concentration (IC50) was 1000 to 10000 nM. In the case of `COc1nnc(NC(=O)c2cnc(C)cc2-c2ccc3cn[nH]c3c2)s1` [Example 338, 4-(1H-indazol-6-yl)-N-(5-methoxy-1,3,4-thiadiazol-2-yl)-6-methylnicotinamide], the IC50 was 1000 to 10000 nM. Same read-out and setting: next, `COc1cnc(Br)cc1-c1cc(C)ncc1C(=O)Nc1nnc(O[C@H]2CCC[C@H](O)C2)s1` [Example 271, 2′-bromo-N-(5-(((1S,3S)-3-hydroxycyclohexyl)oxy)-1,3,4-thiadiazol-2-yl)-5′-methoxy-6-methyl-[4,4′-bipyridine]-3-carboxamide]: no more than 200 nM.

Still in this assay, the particulars now being: Table 4; Pol theta (1-899) 5 nM, ATP, dT50 ssDNA.
Consider `COc1nnc(NC(=O)c2cnc(C)cc2-c2cc(C)ncc2OC(F)F)s1` [Example 52, 5′-(difluoromethoxy)-N-(5-methoxy-1,3,4-thiadiazol-2-yl)-2′,6-dimethyl-(4,4′-bipyridine)-3-carboxamide], for which the IC50 is no more than 200 nM. Take `COc1cnc(Cl)cc1-c1cc(C)ncc1C(=O)Nc1nnc(O[C@H]2C[C@@H](O)C2)s1` [Example 15, 2′-chloro-N-(5-((1s,3s)-3-hydroxycyclobutoxy)-1,3,4-thiadiazol-2-yl)-5′-methoxy-6-methyl-(4,4′-bipyridine)-3-carboxamide]: the 50% inhibitory concentration (IC50) is no more than 200 nM.

In turn, `COc1cnc(Cl)cc1-c1cc(C)ncc1C(=O)Nc1nnc(O[C@H]2CC[C@@H](O)CC2)s1` (single isomer, unassigned) [Example 26, 2′-chloro-N-(5-(((1s,4s)-4-hydroxycyclohexyl)oxy)-1,3,4-thiadiazol-2-yl)-5′-methoxy-6-methyl-[4,4′-bipyridine]-3-carboxamide] yielded an IC50 of no more than 200 nM. Turning to `COc1nnc(NC(=O)c2cnc(C)cc2-c2cc(C3CC3)ncc2OC)s1` [Example 51, 2′-cyclopropyl-5′-methoxy-N-(5-methoxy-1,3,4-thiadiazol-2-yl)-6-methyl-(4,4′-bipyridine)-3-carboxamide], the IC50 was no more than 200 nM. The compound `COc1cnc(Cl)cc1-c1cc(C)ncc1C(=O)Nc1nnc(O[C@@H]2CCOC2)s1` [Example 23, (R)-2′-chloro-5′-methoxy-6-methyl-N-(5-((tetrahydrofuran-3-yl)oxy)-1,3,4-thiadiazol-2-yl)-(4,4′-bipyridine)-3-carboxamide] showed an IC50 of no more than 200 nM. Still for that read-out and setting: with `COc1nnc(NC(=O)c2cnc(C)cc2-c2ccccc2OC)s1` [Example 54, N-(5-methoxy-1,3,4-thiadiazol-2-yl)-4-(2-methoxyphenyl)-6-methylnicotinamide] the figure was 500 to 1000 nM; with `COc1nnc(NC(=O)c2cnc(C)cc2-c2cc(C)nnc2OC)s1` [Example 43, N-(5-methoxy-1,3,4-thiadiazol-2-yl)-4-(3-methoxy-6-methylpyridazin-4-yl)-6-methylnicotinamide], 200 to 500 nM.

The same assay, now with this note: Table 5; Pol theta (1-899) 5 nM, ATP, dT50 ssDNA.
On to `Cc1cc(-c2cc(Cl)ncc2OC(F)F)c(C(=O)Nc2nnc(O[C@@H]3CCOC3)s2)cn1` [Example 82, (R)-2′-chloro-5′-(difluoromethoxy)-6-methyl-N-(5-((tetrahydrofuran-3-yl)oxy)-1,3,4-thiadiazol-2-yl)-(4,4′-bipyridine)-3-carboxamide], for which the IC50 is no more than 200 nM. On the same count and under the same terms, next, `COc1cnc(Cl)c(F)c1-c1cc(C)ncc1C(=O)Nc1nnc(O[C@@H]2CCC[C@@H](O)C2)s1` (single isomer, unassigned) [Example 157]: no more than 200 nM. Turning to `COc1cnc(Cl)c(F)c1-c1cc(C)ncc1C(=O)Nc1nnc(O[C@H]2CCOC2)s1` [Example 81, 2′-chloro-3′-fluoro-5′-methoxy-6-methyl-N-(5-(((S)-tetrahydrofuran-3-yl)oxy)-1,3,4-thiadiazol-2-yl)-(4,4′-bipyridine)-3-carboxamide], the IC50 is no more than 200 nM. `COc1cnc(Br)cc1-c1cc(C)ncc1C(=O)Nc1nnc(O[C@H]2COC3(CC3)C2)s1` (single isomer, unassigned) [Example 227] yielded an IC50 of no more than 200 nM. On the same count and under the same terms, with `COc1cnc(Cl)cc1-c1cc(C)ncc1C(=O)Nc1nnc(O[C@H]2CCO[C@@H]2C)s1` (racemic) [Example 93, rac-2′-Chloro-5′-methoxy-6-methyl-N-(5-(((2R,3S)-2-methyltetrahydrofuran-3-yl)oxy)-1,3,4-thiadiazol-2-yl)-(4,4′-bipyridine)-3-carboxamide] the figure was no more than 200 nM; with `COc1cnc(Cl)cc1-c1cc(C)ncc1C(=O)Nc1nnc(O[C@H]2CC[C@H](OC)C2)s1` (racemic) [Example 149, rac-2′-chloro-5′-methoxy-N-(5-(((1R,3R)-3-methoxycyclopentyl)oxy)-1,3,4-thiadiazol-2-yl)-6-methyl-(4,4′-bipyridine)-3-carboxamide], no more than 200 nM; with `COc1cnc(Cl)c(F)c1-c1cc(C)ncc1C(=O)Nc1nnc(O[C@@H]2CCO[C@H]2C)s1` (single isomer, unassigned) [Example 167], no more than 200 nM. For the compound `COc1cnc(Cl)cc1-c1cc(C)ncc1C(=O)Nc1nnc(OC2CC(C)(O)C2)s1` (mixture of isomers) [Example 176, 2′-chloro-N-(5-(3-hydroxy-3-methylcyclobutoxy)-1,3,4-thiadiazol-2-yl)-5′-methoxy-6-methyl-(4,4′-bipyridine)-3-carboxamide], the half-maximal inhibitory concentration (IC50) was no more than 200 nM. `COc1cnc(Cl)cc1-c1cc(C)ncc1C(=O)Nc1nnc(O[C@@H]2CO[C@@H](C)C2)s1` (single isomer, unassigned) [Example 190]: the IC50 was no more than 200 nM. In turn, `COc1cnc(Cl)c(F)c1-c1cc(C)ncc1C(=O)Nc1nnc(O[C@@H]2CCO[C@@H]2C)s1` (single isomer, unassigned) [Example 166] showed a 50% inhibitory concentration (IC50) of no more than 200 nM.
